Read-outs that look alike come from different tables or passages of the source. Marks after values point to notes of the source that are not given here.
How the values were obtained:
[1] = system: BX-PC3 (pancreatic cancer) cells; assay: MTT in vitro cytotoxicity, BX-PC3; assay type: cell-based, human; details: read-out: Concentration to inhibit 50% cell growth (IC50 nM ± SD), BX-PC3
Procedure: (§1) In vitro cytotoxicity was measured with MTT. Cell suspension was prepared using cells in good condition and seeded at 200 μl/well on a 96 well plate before culturing for 24 hours in a temperature-controlled CO2 incubator. The test drug was added at 20 μl/well and cultured for 48 hours. MTT was added to the 96 well plate at 20 ul/well and allowed to react for 4 hours in the incubator. The supernatant was removed and DMSO was added at 20 μl/well. Cytotoxicity was determined by the absorbance measured by Enzyme-linked immunosorbent assay at a wavelength of 570 nm.

[2] = system: A549 (non-small cell lung cancer) cells; assay: MTT in vitro cytotoxicity, A549; assay type: cell-based, human; details: read-out: Concentration to inhibit 50% cell growth (IC50 nM ± SD), A549
Procedure: as §1

U87 (glioma) cells = assay: MTT in vitro cytotoxicity, U87; assay type: cell-based, human; details: read-out: Concentration to inhibit 50% cell growth (IC50 nM ± SD), U87
Procedure: as §1

[3] = system: OV-3 (ovarian cancer) cells; assay: MTT in vitro cytotoxicity, OV-3; assay type: cell-based, human; details: read-out: Concentration to inhibit 50% cell growth (IC50 nM ± SD), OV-3
Procedure: as §1

[4] = system: HT-29 (colon cancer) cells; assay: MTT in vitro cytotoxicity, HT-29; assay type: cell-based, human; details: read-out: Concentration to inhibit 50% cell growth (IC50 nM ± SD), HT-29
Procedure: as §1

[5] = system: U87, BX-PC3, HT-29, OV-3 and A549 cell lines; assay: MTT in vitro cytotoxicity, five cell lines together (mean / overall); details: for in vitro activity / cytotoxicity (in words): MTT, A549, HT-29, OV-3, U87, BX-PC3
Procedure: as §1

[6] = system: a variety of transplanted tumors; details: at maximum tolerated dose
Procedure: (§2) Methods: female nude mice were used for the experiments. Transplantation of tumors: Actively growing tumor tissues were cut into small pieces with sterilized scissors and each mouse was inoculated with 50 mg of the tumor tissue. Treatment began on days 6-10 after tumor transplantation when the weight of the tumor was around 300 mg. The nude mice were weighed and the tumor size was measured every other day. Transplanted tumors: human breast cancer (MX-1), human non-small cell lung cancer (A549), human ovarian carcinoma (SK-0V3), human colon carcinoma (HT29), human pancreatic cancer (BX-PC-3).

[7] = Determination of equitoxic dose (maximum tolerated dose); assay type: in vivo, nude mice; details: q2dx4, decrease in weight of around 15%; for MTD: nude, mouse, in vivo, intravenous, read-out: Experimentally determined dosage at the same level of toxicity (maximum tolerated dose)
Procedure: (§3) CP1 had better solubility and stability than CPT2-10.
Dosing regimen: once every two days, a total of four times; route of administration: intravenous injection at the tail vein. # At 16 days after treatment. […] The doses used were those that were determined experimentally to cause the same toxicity of weight decrease by 12-15%. T.S: tumor size

[8] = system: MX-1 human breast cancer xenograft; assay: Therapeutic effect on nude mouse with MX-1 xenograft; assay type: in vivo; details: for Tumor disappear: animals with tumor not detectable visually, observed for 60 days; for Tumor disappear / Maximum change in weight (%): iv; for T.S. (mm3) D 16: tumor size 16 days after treatment, iv tail vein; for T.S. (mm3) D 16 / T.S. (mm3) D 0: MX-1; for T.S. (mm3) D 0: tumor size at day 0 (baseline)
Procedure: as §2
B: Tumor disappearance: tumor could not be detected visually 60 days after the experiment

[9] = Solubility and stability comparison; assay type: physicochemical
Description: as §3

[10] = system: SK-OV3 human ovarian carcinoma xenograft; assay: Therapeutic effect on nude mice with SK-OV3 xenograft; assay type: in vivo; set-up: Tumor inhibition: unit not given here; details: for Tumor inhibition: 16 days after treatment; for Tumor inhibition / Maximum change in weight (%): iv; for Tumor inhibition / T.S. (mm3) D 16 / T.S. (mm3) D 0: SK-OV3; for T.S. (mm3) D 16: tumor size 16 days after treatment, iv tail vein; for T.S. (mm3) D 0: tumor size at day 0 (baseline)
Procedure: as §2

[11] = system: intra-cerebrally transplanted U87 human glioma brain tumor; assay: Therapeutic effect on intra-cerebrally transplanted U87 brain tumor; assay type: in vivo, mice
Description: Methods: female nude mice were used for the experiments.
Dosing regimen: once every two days, a total of four times; route of administration: intravenous injection at the tail vein. Mice died from brain tumor after inoculation with 2×10^5 cells. #: Comparing CPT1 with irinotecan and gimatecan.

[12] = MTT, drug cultured 48 hours, BX-PC3
[13] = MTT, drug cultured 48 hours, A549
[14] = MTT, drug cultured 48 hours, U87
[15] = MTT, drug cultured 48 hours, OV-3
[16] = MTT, drug cultured 48 hours, HT-29
[17] = read-out: Concentration to inhibit 50% cell growth, mean (average concentration), mean over U87, BX-PC3, HT-29, OV-3, A549
[18] = once every two days, four times
[19] = inoculation with 2×10^5 U87 cells intra-cerebrally, iv, once every two days, four times
[20] = MX-1 nude mouse, once every two days, four times
[21] = SK-OV3 nude mice, once every two days, four times

| Molecule | IC50 [1, 12] [nM] | IC50 [2, 13] [nM] | IC50 (U87 (glioma) cells; [14]) [nM] | IC50 [3, 15] [nM] | IC50 [4, 16] [nM] | IC50 [5, 17] [nM] | Tumor disappear [8, 18] | T.S. (mm3) D 16 [8, 18] [mm3] | T.S. (mm3) D 0 [8] [mm3] | Tumor inhibition [10, 18] | T.S. (mm3) D 16 [10, 18] [mm3] | T.S. (mm3) D 0 [10] [mm3] | in vitro activity / cytotoxicity (in words) [5] | further results |
| --- | --- | --- | --- | --- | --- | --- | --- | --- | --- | --- | --- | --- | --- | --- |
| 9-t-butyloxyethyloxime-10-hydroxy-camptothecin [CPT2] | 5.1 ± 2 | 14.1 ± 1.2 | 2.9 ± 1.1 | 16.1 ± 2.5 | 7.1 ± 1.6 | 9.1 |  |  |  |  |  |  |  |  |
| CCC1(O)C(=O)OCc2c1cc1n(c2=O)Cc2cc3c(CC=NOC(C)(C)C)c(OC(=O)N4CCC(N5CCCCC5)CC4)ccc3nc2-1 (stereo not shown) [CPT1, 9-t-butyloxyethyloxime-10-[(4′-piperidinylpiperidinyl)carbonyloxy]-camptothecin] |  |  |  |  |  |  | 6/6 | 0 | 356 ± 51 | 80.4 | 358 ± 34 | 236 ± 34 | do not have significant activities in vitro | Therapeutic effect against transplanted tumors (in words) [6]: good therapeutic effect; Experimentally determined dosage at the same level of toxicity (maximum tolerated dose) [7]: 55 mg/kg; Maximum change in weight (%) ([8]; mouse, in vivo): −13%; Solubility compared with CPT2-10 [9]: better; Stability compared with CPT2-10 [9]: better; Maximum change in weight (%) ([10]; mouse, in vivo): −12%; Survival time compared with irinotecan and gimatecan ([11]; P<0.05): increased significantly; Average survival time (days) [11, 19]: 26.4 ± 1.2# days |
| CCC1(O)C(=O)OCc2c1cc1n(c2=O)Cc2cc3c(CC=NOC(C)(C)C)c(F)ccc3nc2-1 (stereo not shown) [CPT3, 9-t-butyloxyethyloxime-10-fluoro-camptothecin] | 3.1 ± 1.5 | 11.2 ± 1 | 2.1 ± 1 | 10.1 ± 2.1 | 9.1 ± 3.2 | 7.1 |  |  |  |  |  |  | significant cytotoxicity |  |
| CCC1(O)C(=O)OCc2c1cc1n(c2=O)Cc2cc3c(CC=NOC(C)(C)C)c(OC(=O)C(N)Cc4ccccc4)ccc3nc2-1 (stereo not shown) [CPT4, 9-t-butyloxyethyloxime-10-phenylalanine-carbonyloxy-camptothecin] |  |  |  |  |  |  |  |  |  |  |  |  | do not have significant activities in vitro |  |
| CCC1(O)C(=O)OCc2c1cc1n(c2=O)Cc2cc3c(CC=NOC(C)(C)C)cccc3nc2-1 (stereo not shown) [CPT7, 9-t-butyloxyethyloxime-camptothecin] | 2.1 ± 1.2 | 5.5 ± 0.8 | 1.5 ± 0.3 | 4.1 ± 0.4 | 3.1 ± 1 | 3.3 |  |  |  |  |  |  | significant cytotoxicity |  |
| CCC1(O)C(=O)OCc2c1cc1n(c2=O)Cc2cc3c(CC=NOC(C)(C)C)c(OC(C)=O)ccc3nc2-1 (stereo not shown) [CPT8] | 7.1 ± 2.1 | 19.3 ± 2.2 | 4.1 ± 1.7 | 23.1 ± 3.1 | 11.1 ± 1.8 | 12.9 |  |  |  |  |  |  | significant cytotoxicity |  |
| CCC1(OC(=O)C(N)Cc2ccccc2)C(=O)OCc2c1cc1n(c2=O)Cc2cc3c(CC=NOC(C)(C)C)c(OC(=O)N4CCC(N5CCCCC5)CC4)ccc3nc2-1 (stereo not shown) [CPT9, 9-t-butyloxyethyloxime-10-[(4′-piperidinylpiperidinyl)carbonyloxy]-20-phenylalanine carbonyloxy-camptothecin] |  |  |  |  |  |  |  |  |  |  |  |  | do not have significant activities in vitro |  |
| CC[C@@]1(O)C(=O)OCc2c1cc1n(c2=O)Cc2c-1nc1ccccc1c2/C=N/OC(C)(C)C [Gimatecan] |  |  |  |  |  |  | 6/6 | 0 | 328 ± 65 | 68.4 | 578 ± 61 | 203 ± 33 |  | IC50 ([1]; Homo sapiens, BXPC-3, 48 h): 1.5 ± 0.8 nM; IC50 ([2]; Homo sapiens, A549, 48 h): 4.7 ± 0.2 nM; MTD [7]: 1 mg/kg; IC50 (U87 (glioma) cells; Homo sapiens, U-87 MG, 48 h): 0.6 ± 0.2 nM; Maximum change in weight (%) [8, 20]: −13%; Maximum change in weight (%) [10, 21]: −12%; IC50 ([3]; Homo sapiens, 48 h): 3.1 ± 2.2 nM; Average survival time [11, 19]: 23.1 ± 1.6 days; IC50 ([4]; Homo sapiens, HT-29, 48 h): 3.6 ± 0.3 nM; IC50 ([5]; Homo sapiens, read-out: Concentration to inhibit 50% cell growth, mean (average concentration), mean over U87, BX-PC3, HT-29, OV-3, A549): 2.7 nM |
| CCc1c2c(nc3ccc(OC(=O)N4CCC(N5CCCCC5)CC4)cc13)-c1cc3c(c(=O)n1C2)COC(=O)[C@]3(O)CC [Irinotecan] |  |  |  |  |  |  | 6/6 | 0 | 361 ± 54 | 75.3 | 451 ± 56 | 214 ± 26 |  | MTD [7]: 55 mg/kg; Maximum change in weight (%) [8, 20]: −12%; Maximum change in weight (%) [10, 21]: −13%; Average survival time [11, 19]: 22.8 ± 1.4 days |
| CCc1c2c(nc3ccc(O)cc13)-c1cc3c(c(=O)n1C2)COC(=O)[C@]3(O)CC [SN38] | 6.8 ± 2.6 | 16.6 ± 1.9 | 3.1 ± 1.1 | 17.1 ± 3.2 | 8.7 ± 1.2 | 10.5 |  |  |  |  |  |  |  |  |
| CC[C@@]1(O)C(=O)OCc2c1cc1n(c2=O)Cc2cc3c(CN(C)C)c(O)ccc3nc2-1 [Topotecan] |  |  |  |  |  | 19.7 | 2/6 | 124 ± 12 | 323 ± 47 | 18.9 | 1478 ± 226 | 223 ± 43 |  | IC50 ([1]; Homo sapiens, BXPC-3, 48 h): 19.1 ± 3.7 nM; IC50 ([2]; Homo sapiens, A549, 48 h): 28.5 ± 3.9 nM; MTD [7]: 12 mg/kg; IC50 (U87 (glioma) cells; Homo sapiens, U-87 MG, 48 h): 12.5 ± 3.2 nM; Maximum change in weight (%) [8, 20]: −14%; Maximum change in weight (%) [10, 21]: −12%; IC50 ([3]; Homo sapiens, 48 h): 21.1 ± 2.6 nM; IC50 ([4]; Homo sapiens, HT-29, 48 h): 17.3 ± 4.2 nM |

From US9006439B2, “Camptothecin derivatives having anti-tumor activity” (priority 2011, dated 2015)
